Here are results for 16 compounds from patent US10259810B2, “N-sulfonylated pyrazolo[3,4-b]pyridin-6-carboxamides and method of use” (AbbVie S.à.r.l., priority 2015, dated 2019).

Molecules are shown by their SMILES.

The target of test [1] is T1, ΔF508-CFTR (Homo sapiens, UniProt P13569, DEL508-508).
T1 construct: host or cells: CFBE41o-, doxycycline-inducible
The test is described as follows: CFTR cell surface levels using HRP-tagged ΔF508-CFTR expressing CFBE cells, intrinsic corrector capacity. Type of test: cell-based. Further details: % Activation: concentration or dose not given beside the values. To be noted: HRP-tagged ΔF508-CFTR expressing CFBE41o- cells, compound alone (intrinsic corrector capacity), 20 hours at 33° C.; for EC50: read-out: EC50. The text has this:
(§1) Measuring CFTR Cell Surface Levels Using HRP-Tagged ΔF508-CFTR Expressing CFBE Cells
(§2) The HRP-tagged ΔF508-CFTR cell assay measures the expression of CFTR-ΔF508 at the plasma membrane. CFTR-ΔF508 has a folding defect leading to absence of protein at the plasma membrane. This assay is used to evaluate the capacity of compounds to increase the expression of CFTR-ΔF508 at the plasma membrane. The CFTR-ΔF508 is tagged with HRP (horse radish peroxidase enzyme) within the ECL4 (Extracellular loop 4) of CFTR (Phuan, P.-W. et al. Synergy-based small-molecule screen using a human lung epithelial cell line yields ΔF508-CFTR correctors that augment VX-809 maximal efficacy. Mol. Pharmacol. 86, 42-51 (2014)). When HRP-tagged ΔF508-CFTR is present at the plasma membrane, the HRP enzyme activity can be measured. The amount of CFTR-ΔF508 that can be rescued to the plasma membrane is correlated with the amount of functional enzyme that can be measured.
(§3) There are several ways to measure the capacity of compounds to rescue CFTR-ΔF508 to the plasma membrane; either compounds are evaluated on their own and the impact on plasma membrane levels is measured or compounds are evaluated in combination with a co-corrector, i.e. a compound that rescues CFTR-ΔF508 to the plasma membrane but rescue can be enhanced by addition of compounds due to a complementary mode of action.
Activity of Compounds for their Intrinsic Corrector Capacity:
For this purpose doxycycline-inducible ΔF508-CFTR-HRP expressing CFBE4lo− cells (obtained from Gergely Lukacs, McGill University) were maintained in MEM (Gibco; 31095) supplemented with 10% fetal bovine serum (Hyclone; SV30160.03) under puromycin (3 μg/mL) and G418 selection (0.2 mg/mL). For compound testing, cells were seeded at 4000 cells/well in white 384-well plates (Greiner; 781080) in 50 μL medium containing 0.5 μg/mL doxycycline and incubated for 68 hours at 37° C., 5% CO2. On day four, […] compounds diluted in PBS were added to the plates at a final DMSO concentration of 0.1%. All compound plates contained negative controls (DMSO) and positive controls ([…] corrector, 3-[(2R,4R)-4-({[1-(2,2-difluoro-1,3-benzodioxol-5-yl)cyclopropyl]carbonyl}amino)-7-methoxy-3,4-dihydro-2H-chromen-2-yl]benzoic acid). Cell plates were incubated at 33° C., 5% CO2 for 20 hours. On day five, the cells were washed five times with phosphate-buffered saline, and HRP activity was assayed by the addition of 50 μL/well of HRP substrate (SuperSignal™ West Pico Chemiluminescent Substrate, Thermo Scientific; 34080). After incubation for 15 minutes in the dark, chemiluminescence was measured using a plate reader (EnVision®, Perkin Elmer). Raw data were normalized to percentage activity values using the equation: 100×(Sample−Negative control)/(Positive control−Negative Control).

Test [2] addresses T1, ΔF508-CFTR. The test is described as follows: CFTR cell surface levels using HRP-tagged ΔF508-CFTR expressing CFBE cells, in the presence of a co-corrector. Type of test: cell-based. To be noted: HRP-tagged ΔF508-CFTR CFBE cells, in the presence of 3 μM co-corrector; for EC50: read-out: EC50.
From the text: as §1, §2, §3
Activity of Compounds in Combination with Co-Corrector:
For this purpose doxycycline-inducible ΔF508-CFTR-HRP expressing CFBE4lo− cells (obtained from Gergely Lukacs, McGill University) were maintained in MEM (Minimum Essential Medium, Gibco; 31095) supplemented with 10% fetal bovine serum (Hyclone; SV30160.03) under puromycin (3 μg/mL) and G418 selection (0.2 mg/mL). For compound testing, cells were seeded at 4000 cells/well in white 384-well plates (Greiner; 781080) in 50 μL of medium containing 0.5 μg/mL doxycycline and incubated for 68 hours at 37° C., 5% CO2. On day four, 10 μL of test compounds diluted in PBS (phosphate buffered saline) were added to the plates at a final DMSO concentration of 0.1%. In order to measure compound synergy with a co-corrector, 3 μM co-corrector (3-[(2R,4R)-4-({[1-(2,2-difluoro-1,3-benzodioxol-5-yl)cyclopropyl]carbonyl}amino)-7-methoxy-3,4-dihydro-2H-chromen-2-yl]benzoic acid) was added along with test compounds. All compound plates contained negative controls (DMSO) and positive controls (3 μM co-corrector). Cell plates were incubated at 33° C., 5% CO2 for 20 hours. On day five, the cells were washed five times with phosphate-buffered saline, and HRP activity was assayed by the addition of 50 μL/well of HRP substrate (SuperSignal™ West Pico Chemiluminescent Substrate, Thermo Scientific; 34080). After incubation for 15 minutes in the dark, the chemiluminescence was measured using a plate reader (EnVision®, Perkin Elmer). Raw data were normalized to percentage activity values using the equation: 100×(Sample−Negative control)/(Positive control−Negative Control).

T1 sequence (P13569 with tags, fused parts or gaps DEL508-508): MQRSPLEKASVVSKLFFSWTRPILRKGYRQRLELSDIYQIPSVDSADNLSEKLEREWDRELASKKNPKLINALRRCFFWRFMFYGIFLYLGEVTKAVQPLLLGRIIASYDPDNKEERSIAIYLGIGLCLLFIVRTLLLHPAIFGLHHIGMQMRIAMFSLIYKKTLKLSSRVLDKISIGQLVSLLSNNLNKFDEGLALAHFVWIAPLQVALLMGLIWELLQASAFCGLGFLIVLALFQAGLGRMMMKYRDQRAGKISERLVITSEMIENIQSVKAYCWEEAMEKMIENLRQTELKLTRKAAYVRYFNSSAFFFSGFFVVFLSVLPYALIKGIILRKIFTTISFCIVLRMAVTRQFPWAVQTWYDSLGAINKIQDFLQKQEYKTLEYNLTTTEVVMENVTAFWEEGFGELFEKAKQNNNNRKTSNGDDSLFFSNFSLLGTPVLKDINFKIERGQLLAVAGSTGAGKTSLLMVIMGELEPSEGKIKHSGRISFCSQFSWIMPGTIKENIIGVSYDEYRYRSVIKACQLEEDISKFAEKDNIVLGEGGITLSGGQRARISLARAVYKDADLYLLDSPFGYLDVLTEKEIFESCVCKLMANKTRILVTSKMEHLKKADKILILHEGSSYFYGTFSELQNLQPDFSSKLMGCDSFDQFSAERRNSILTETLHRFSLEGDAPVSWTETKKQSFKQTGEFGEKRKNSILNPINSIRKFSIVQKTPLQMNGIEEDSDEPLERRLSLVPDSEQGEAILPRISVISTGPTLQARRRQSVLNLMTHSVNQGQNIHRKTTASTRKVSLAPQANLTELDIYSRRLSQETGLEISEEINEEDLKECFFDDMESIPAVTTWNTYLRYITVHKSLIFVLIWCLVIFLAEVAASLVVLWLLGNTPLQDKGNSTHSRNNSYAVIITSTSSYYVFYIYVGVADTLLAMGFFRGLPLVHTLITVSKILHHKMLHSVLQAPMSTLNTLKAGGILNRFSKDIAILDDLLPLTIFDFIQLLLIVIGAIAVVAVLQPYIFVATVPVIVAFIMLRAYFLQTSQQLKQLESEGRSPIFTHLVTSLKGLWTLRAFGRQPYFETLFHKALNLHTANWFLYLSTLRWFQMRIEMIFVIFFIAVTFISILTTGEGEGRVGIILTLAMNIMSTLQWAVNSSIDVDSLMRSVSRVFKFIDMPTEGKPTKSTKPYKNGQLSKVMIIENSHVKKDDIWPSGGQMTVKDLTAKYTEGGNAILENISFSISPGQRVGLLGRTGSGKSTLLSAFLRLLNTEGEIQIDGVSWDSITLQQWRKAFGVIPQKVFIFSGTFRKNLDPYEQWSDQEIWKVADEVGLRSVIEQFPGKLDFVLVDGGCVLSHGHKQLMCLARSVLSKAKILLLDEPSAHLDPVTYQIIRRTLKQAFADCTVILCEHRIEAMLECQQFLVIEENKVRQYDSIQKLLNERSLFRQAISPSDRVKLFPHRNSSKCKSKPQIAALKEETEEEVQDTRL

In the case of `Cc1nn(-c2ccccc2)c2nc(C(=O)NS(=O)(=O)C(F)(F)F)cc(-c3ccc(N4CCOCC4)cc3)c12` [Compound 3, 3-methyl-4-[4-(morpholin-4-yl)phenyl]-1-phenyl-N-(trifluoromethanesulfonyl)-1H-pyrazolo[3,4-b]pyridine-6-carboxamide], on ΔF508-CFTR [1], the “% Activation” value was 53.08% and the EC50 came out at 3340 nM.
Regarding `O=C(NS(=O)(=O)C1CC1)c1cc(OCC2CCOCC2)c2c(C3CCC3)nn(-c3ccccc3)c2n1` [Compound 333, 3-cyclobutyl-N-(cyclopropanesulfonyl)-4-[(oxan-4-yl)methoxy]-1-phenyl-1H-pyrazolo[3,4-b]pyridine-6-carboxamide], on ΔF508-CFTR [1], the “% Activation” value stood at 180% and the EC50 was determined as 82.8 nM.
For the compound `CCS(=O)(=O)NC(=O)c1cc(OCC2CCOCC2)c2c(C3CCC3)nn(-c3ccccc3)c2n1` [Compound 335, 3-cyclobutyl-N-(ethanesulfonyl)-4-[(oxan-4-yl)methoxy]-1-phenyl-1H-pyrazolo[3,4-b]pyridine-6-carboxamide], on ΔF508-CFTR [1], the “% Activation” value was 171.65% and the EC50 was 150 nM.
`O=C(NS(=O)(=O)C1CCOC1)c1cc(-c2ccc(CN3CCOCC3)cc2)c2c(OC3CCC3)nn(C3CCCCC3)c2n1` (centres unmarked) [Compound 467, 3-(cyclobutyloxy)-1-cyclohexyl-4-{4-[(morpholin-4-yl)methyl]phenyl}-N-(oxolane-3-sulfonyl)-1H-pyrazolo[3,4-b]pyridine-6-carboxamide]: on ΔF508-CFTR [2], the “% Activation” value amounted to 229.15% and the EC50 was 270 nM.
Consider `O=C(NS(=O)(=O)C1CCOC1)c1cc(N2CCN(c3ccncc3)CC2)c2c(C3CCC3)nn(C3CCCCC3)c2n1` (centres unmarked) [Compound 468, 3-cyclobutyl-1-cyclohexyl-N-(oxolane-3-sulfonyl)-4-[4-(pyridin-4-yl)piperazin-1-yl]-1H-pyrazolo[3,4-b]pyridine-6-carboxamide], for which, at ΔF508-CFTR [2], the “% Activation” value was determined as 443.05% and the EC50 amounted to 524 nM.
In the case of `CC(C)N1CCN(c2ccc(-c3cc(C(=O)NS(=O)(=O)N(C)C)nc4c3c(C3CCC3)nn4C3CCCCC3)cc2)CC1` [Compound 547, 3-cyclobutyl-1-cyclohexyl-N-(dimethylsulfamoyl)-4-{4-[4-(propan-2-yl)piperazin-1-yl]phenyl}-1H-pyrazolo[3,4-b]pyridine-6-carboxamide], at ΔF508-CFTR [2], the “% Activation” value was 372.95% and the EC50 is 349 nM.
As to `CCOC(=O)N1CCC(NS(=O)(=O)NC(=O)c2cc(N3CCC(COC)CC3)c3c(C4CCC4)nn(-c4ccc(F)cc4)c3n2)CC1` [Compound 673, ethyl 4-[({3-cyclobutyl-1-(4-fluorophenyl)-4-[4-(methoxymethyl)piperidin-1-yl]-1H-pyrazolo[3,4-b]pyridine-6-carbonyl}sulfamoyl)amino]piperidine-1-carboxylate], on ΔF508-CFTR [1], the “% Activation” value stood at 423.5% and the EC50 was 288 nM.
`COCC1CCN(c2cc(C(=O)NS(=O)(=O)NC3COC3)nc3c2c(C2CCC2)nn3-c2ccc(F)cc2)CC1` [Compound 674, 3-cyclobutyl-1-(4-fluorophenyl)-4-[4-(methoxymethyl)piperidin-1-yl]-N-[(oxetan-3-yl)sulfamoyl]-1H-pyrazolo[3,4-b]pyridine-6-carboxamide]: on ΔF508-CFTR [1], the “% Activation” value was determined as 389.5% and the EC50 stood at 156 nM.
Take `COCC1CCN(c2cc(C(=O)NS(=O)(=O)NC3CCOCC3)nc3c2c(C2CCC2)nn3-c2ccc(F)cc2)CC1` [Compound 675, 3-cyclobutyl-1-(4-fluorophenyl)-4-[4-(methoxymethyl)piperidin-1-yl]-N-[(oxan-4-yl)sulfamoyl]-1H-pyrazolo[3,4-b]pyridine-6-carboxamide]: on ΔF508-CFTR [1], the “% Activation” value was found to be 398.1% and the EC50 was 316 nM.
The matching figures for `COCC1CCN(c2cc(C(=O)NS(=O)(=O)N3CCC(N4CCOCC4)CC3)nc3c2c(C2CCC2)nn3-c2ccc(F)cc2)CC1` [Compound 676, 3-cyclobutyl-1-(4-fluorophenyl)-4-[4-(methoxymethyl)piperidin-1-yl]-N-[4-(morpholin-4-yl)piperidine-1-sulfonyl]-1H-pyrazolo[3,4-b]pyridine-6-carboxamide]: 251.1% and 251 nM.
For the compound `CCOC(=O)N1CCN(c2cc(C(=O)NS(=O)(=O)CCOC)nc3c2c(C2CCC2)nn3-c2ccc(F)cc2)CC1` [Compound 677, ethyl 4-{3-cyclobutyl-1-(4-fluorophenyl)-6-[(2-methoxyethanesulfonyl)carbamoyl]-1H-pyrazolo[3,4-b]pyridin-4-yl}piperazine-1-carboxylate], on ΔF508-CFTR [1], the “% Activation” value is on record as 458.5% and the EC50 was 171 nM.
The matching figures for `CCOC(=O)N1CCN(c2cc(C(=O)NS(=O)(=O)N3CCOCC3)nc3c2c(C2CCC2)nn3-c2ccc(F)cc2)CC1` [Compound 678, ethyl 4-{3-cyclobutyl-1-(4-fluorophenyl)-6-[(morpholine-4-sulfonyl)carbamoyl]-1H-pyrazolo[3,4-b]pyridin-4-yl}piperazine-1-carboxylate]: 345.1% and 221 nM.
The corresponding values for `CCOC(=O)N1CCN(c2cc(C(=O)NS(C)(=O)=O)nc3c2c(C2CCC2)nn3-c2ccc(F)cc2)CC1` [Compound 679, ethyl 4-{3-cyclobutyl-1-(4-fluorophenyl)-6-[(methanesulfonyl)carbamoyl]-1H-pyrazolo[3,4-b]pyridin-4-yl}piperazine-1-carboxylate] are 476.9% and 132 nM.
The matching figures for `CCOC(=O)N1CCN(c2cc(C(=O)NS(=O)(=O)NC)nc3c2c(C2CCC2)nn3-c2ccc(F)cc2)CC1` [Compound 680, ethyl 4-{3-cyclobutyl-1-(4-fluorophenyl)-6-[(methylsulfamoyl)carbamoyl]-1H-pyrazolo[3,4-b]pyridin-4-yl}piperazine-1-carboxylate]: 351.2% and 339 nM.
On to `CC(C)COC(=O)N1CCN(c2cc(C(=O)NS(C)(=O)=O)nc3c2c(C2CCC2)nn3-c2ccc(F)cc2)CC1` [Compound 681, 2-methylpropyl 4-{3-cyclobutyl-1-(4-fluorophenyl)-6-[(methanesulfonyl)carbamoyl]-1H-pyrazolo[3,4-b]pyridin-4-yl}piperazine-1-carboxylate], for which, on ΔF508-CFTR [1], the “% Activation” value was 366.2% and the EC50 came to 172 nM.
Consider `CC(C)COC(=O)N1CCN(c2cc(C(=O)NS(=O)(=O)N3CCOCC3)nc3c2c(C2CCC2)nn3-c2ccc(F)cc2)CC1` [Compound 682, 2-methylpropyl 4-{3-cyclobutyl-1-(4-fluorophenyl)-6-[(morpholine-4-sulfonyl)carbamoyl]-1H-pyrazolo[3,4-b]pyridin-4-yl}piperazine-1-carboxylate], for which, on ΔF508-CFTR [1], the “% Activation” value amounted to 260.8% and the EC50 is 297 nM.
